Experiments:
GEN1 = target: T1, GEN1 (Homo sapiens, UniProt Q17RS7); assay: Fluorescence-based nuclease activity assay, GEN1; format: biochemical; settings: n = 11, SD = 569; cognate substrate
T1 construct: Truncated GEN1 (1-527) was expressed in insect cells; Strep-tag (implied by Streptrap column); made in house; host or cells: insect cells
Experimental: (§1) MSC778 was dissolved in dimethyl sulphoxide (DMSO) to give a 10 mM stock. FEN1/EXO1: compound was dispensed into black 384-shallow well microplates (Greiner #784076). The compound was dispensed as an 11-point dose response with a 3-fold serial dilution from a top concentration of 10 mM (to give a final in-assay concentration of 100 µM). GEN1/XPG: MSC778 was dispensed into black 1536-well plates (Greiner #782076). The compound was dispensed as a 20-point dose response with a 3-fold serial dilution from a top concentration of 10 mM (to give a final in-assay concentration of 100 µM). The volume of DMSO was adjusted to ensure that each well contained 1% (v/v) DMSO in the final assay. Control wells containing DMSO alone or inhibitor at sufficient concentration to cause complete inhibition of the reaction were also included. […]
(§2) 5 µl (FEN1/EXO1) or 3 µl per well (GEN1/XPG) of stop buffer (20 mM Tris pH 7.5, 300 mM EDTA) was added to all wells, then the plates were read on the CLARIOstar Plus (BMG LABTECH Ltd.) using the Fluorescein (FITC) wavelengths (Ex 483 ± 14, Em 530 ± 30, Dichroic auto/502.5) and auto focal height/gain settings.
(§3) All data analysis was carried out using Genedata Screener software. IC50 values were calculated using the SmartFit function.

XPG = target: T2, XPG (Homo sapiens, UniProt P28715); assay: Fluorescence-based nuclease activity assay, XPG; format: biochemical; settings: n = 10, SD = 0.86; cognate substrate
T2 construct: XPG (1-1186); Strep-tag (C); made in house; host or cells: Sf9 insect cells
T2 sequence (P28715 whole entry): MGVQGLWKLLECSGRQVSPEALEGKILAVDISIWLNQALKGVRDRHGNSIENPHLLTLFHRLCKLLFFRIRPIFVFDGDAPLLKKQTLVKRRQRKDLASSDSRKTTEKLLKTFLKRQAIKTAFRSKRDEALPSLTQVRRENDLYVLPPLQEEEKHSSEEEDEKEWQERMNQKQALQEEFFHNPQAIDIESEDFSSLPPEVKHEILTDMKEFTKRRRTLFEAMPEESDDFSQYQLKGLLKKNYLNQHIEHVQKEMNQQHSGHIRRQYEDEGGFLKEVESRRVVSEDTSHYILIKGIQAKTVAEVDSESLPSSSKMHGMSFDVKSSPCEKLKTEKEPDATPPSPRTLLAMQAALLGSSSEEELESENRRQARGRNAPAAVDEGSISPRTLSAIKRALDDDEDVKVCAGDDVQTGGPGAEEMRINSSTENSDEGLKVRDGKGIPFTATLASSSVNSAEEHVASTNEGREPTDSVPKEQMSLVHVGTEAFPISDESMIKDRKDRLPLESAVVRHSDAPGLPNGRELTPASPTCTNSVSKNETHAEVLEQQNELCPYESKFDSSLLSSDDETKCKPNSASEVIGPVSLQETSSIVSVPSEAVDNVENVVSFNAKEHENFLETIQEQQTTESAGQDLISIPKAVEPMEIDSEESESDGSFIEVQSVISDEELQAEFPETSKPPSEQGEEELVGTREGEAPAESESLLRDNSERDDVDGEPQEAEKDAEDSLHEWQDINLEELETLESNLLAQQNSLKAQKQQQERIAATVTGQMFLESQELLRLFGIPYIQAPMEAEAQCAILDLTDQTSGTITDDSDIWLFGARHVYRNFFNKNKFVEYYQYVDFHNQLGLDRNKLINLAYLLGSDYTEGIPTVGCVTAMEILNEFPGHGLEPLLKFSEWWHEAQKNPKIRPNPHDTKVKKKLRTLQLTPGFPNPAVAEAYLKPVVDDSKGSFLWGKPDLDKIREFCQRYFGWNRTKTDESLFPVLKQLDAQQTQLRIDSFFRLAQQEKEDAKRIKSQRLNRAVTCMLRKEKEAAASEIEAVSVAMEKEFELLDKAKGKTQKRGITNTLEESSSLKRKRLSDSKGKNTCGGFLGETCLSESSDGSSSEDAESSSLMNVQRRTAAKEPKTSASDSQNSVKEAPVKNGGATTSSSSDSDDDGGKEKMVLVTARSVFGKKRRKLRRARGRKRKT
Experimental: as §1, §2, §3

NanoLuc-FEN1 = target: T3, NanoLuc-FEN1 (Homo sapiens, UniProt P39748); assay: NanoBRET cellular target engagement assay in HEK-293 cells; format: cell-based; settings: more potent than MSC781
T3 construct: host or cells: HEK-293
T3 sequence (P39748 whole entry): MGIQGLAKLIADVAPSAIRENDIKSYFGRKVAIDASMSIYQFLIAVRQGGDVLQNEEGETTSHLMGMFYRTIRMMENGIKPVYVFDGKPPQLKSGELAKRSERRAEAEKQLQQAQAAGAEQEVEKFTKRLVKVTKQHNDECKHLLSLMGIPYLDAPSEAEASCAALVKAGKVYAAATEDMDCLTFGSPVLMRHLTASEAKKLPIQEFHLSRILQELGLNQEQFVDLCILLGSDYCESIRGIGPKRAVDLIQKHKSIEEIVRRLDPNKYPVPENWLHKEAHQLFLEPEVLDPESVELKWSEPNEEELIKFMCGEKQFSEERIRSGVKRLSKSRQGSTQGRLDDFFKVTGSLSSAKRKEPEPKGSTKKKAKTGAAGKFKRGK
Experimental: The NanoBRET™ assay was set-up and performed by Promega, Madison, USA [40]. The tracer compound (“tracer 6”) was synthesized based on an in-house compound. A NanoLuc®-FEN1 expression plasmid was transiently transfected into HEK-293 cells and 20 µl of subsequent cell/DNA suspension dispensed into wells of 384-well assay plates. Tracer 6 (final concentration 125 nM) and test compounds (10 step 1:3 dilution from a top concentration of 10 µM) in 100% DMSO were dispensed with a Echo Labcyte (Beckman Coulter) in technical duplicates.
To induce NanoLuc activity, 10 µl of 3× detection substrate NanoBRET™ Nano-GLO® Live Cell Solution in OptiMEM with digitonin (final concentration 150 µg/ml) were added per well. Kinetics were followed by luminescence multimode reader (DonorEm 450nm/AcceptorEm 610 nm) for 1 h. BRET ratios were calculated and resulting mBRET values were graphed versus compound concentrations and fitted to a nonlinear regression curve (four parameters) to determine IC50 values.
In this assay, NanoBRET occurs between a fluorescent moiety (acceptor) on a tracer molecule and the NanoLuc tag (donor) on FEN1 that are in close proximity.

DLD-1 cells = assay: Cell viability assay (AlamarBlue), 7 days; format: cell-based; settings: Homo sapiens, 168 h, DLD-1 wild-type, N = 3
Experimental: Cells were seeded in 96-well plates and treated the day after seeding with a serial dilution of compounds in technical duplicates. After 7 days, viability was analyzed using the AlamarBlue reagent (BioRad). AlamarBlue was added in an amount equal to 10% of the volume in the well and after a 4–6 h incubation viability was determined by fluorescence analysis using a standard plate reader. Fluorescence was normalized to vehicle treated control for each cell line, and data were fitted in Genedata Screener to generate compound sensitivity curves and determine IC50 or EC50 (half maximal inhibitory/effective concentration) values as indicated.

MDA-MB-436 cells = assay: Colony formation assay; format: cell-based
Experimental: Exponentially growing DLD-1, DLD-1 BRCA2^KO, SUM149PT, and MDA-MB-436 were seeded on 24-well plates at densities of 100, 400, 500, or 650 cells/well, respectively. Cells were treated with a serial dilution of FEN1 inhibitor and incubated for 11 days (DLD-1 and SUM149PT) or 14 days (DLD-1 BRCA2^KO and MDA-MB-436). Colonies were washed with PBS, fixed with 70% ethanol, and stained with 1% crystal violet solution (Sigma–Aldrich). Excess crystal violet solution was washed off using tap water and images were acquired using a GelCount Scanner (Oxford Optronix). Dye was solubilized with 10% acetic acid (VWR) and absorbance at 595 nm measured using a CLARIOstar plate reader (BMG LABTECH Ltd.). Raw absorbance data for each cell line were normalized to DMSO treatment. Data were fitted with a nonlinear regression curve (four parameters) to determine EC50 (half maximal inhibitory concentration) values.

T1 sequence (Q17RS7 1-527): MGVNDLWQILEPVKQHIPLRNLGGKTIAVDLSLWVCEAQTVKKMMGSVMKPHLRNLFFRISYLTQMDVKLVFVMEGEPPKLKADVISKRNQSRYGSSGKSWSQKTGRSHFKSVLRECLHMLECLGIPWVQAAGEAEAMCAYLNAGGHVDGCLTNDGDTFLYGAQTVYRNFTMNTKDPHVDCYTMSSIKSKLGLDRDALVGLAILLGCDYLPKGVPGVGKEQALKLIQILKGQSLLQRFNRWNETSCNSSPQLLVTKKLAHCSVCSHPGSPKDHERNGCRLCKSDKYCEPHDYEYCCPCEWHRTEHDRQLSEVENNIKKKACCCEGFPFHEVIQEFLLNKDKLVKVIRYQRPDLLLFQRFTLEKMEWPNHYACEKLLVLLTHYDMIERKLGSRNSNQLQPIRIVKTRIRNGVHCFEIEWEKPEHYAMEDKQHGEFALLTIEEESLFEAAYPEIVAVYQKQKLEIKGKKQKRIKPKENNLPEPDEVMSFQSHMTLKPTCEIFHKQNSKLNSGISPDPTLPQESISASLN

Q: Which IC50 (GEN1) does the source give for `C[C@H](Oc1nn2c(c(O)c1=O)C(=O)N1CCOC[C@@H]1C2)c1ccc2ccc(Cl)cc2c1` [MSC778] here?
A: The IC50 was 1660 nM.

Q: And the IC50 (XPG)?
A: The IC50 was 218 nM.

Q: What about the “NanoBRET potency relative to MSC781” value (NanoLuc-FEN1) of the same compound?
A: The value was 23 fold.

Q: What about the EC50 (DLD-1 cells) of the same compound?
A: Its EC50 is 2300 nM.

Q: And the EC50 (MDA-MB-436 cells; Homo sapiens, 336 h, MDA-MB-436, 14 days, read-out: Colony survival EC50)?
A: The EC50 was 65 nM.

Q: What about the “Enhancement in sensitivity in colony survival versus 7-day viability assay” value (MDA-MB-436 cells; MDA-MB-436) of the same compound?
A: The value was 10 fold.

From paper PMC12684391, “Mechanistic insights into the monotherapy and combination potential of FEN1 inhibition in cancer therapy” (Nucleic Acids Research, 2025)
